Assay results from US20240116985A1, “STAPLED PEPTIDES AND METHODS THEREOF” (priority 2020, published 2024).
In brackets after ≈: the same amount, converted by molar mass. Like-named read-outs stand apart in the source and are kept apart here.

What was measured:
[1] = CHI Log D procedure; type: physicochemical; details: for CHI Log D: pH 7.4; for chromatographic logD: pH 7.4, CHI Log D
[2] = target: T1, full-length beta-Catenin (Uniprot ID P35222) (Homo sapiens, UniProt P35222); test: Fluorescence polarization IC50 (beta-catenin / 5FAM-TCF4 10-53 competition); type: binding
T1 construct: 10 nM full-length beta-Catenin (Uniprot ID P35222)
T1 sequence (P35222 1-781): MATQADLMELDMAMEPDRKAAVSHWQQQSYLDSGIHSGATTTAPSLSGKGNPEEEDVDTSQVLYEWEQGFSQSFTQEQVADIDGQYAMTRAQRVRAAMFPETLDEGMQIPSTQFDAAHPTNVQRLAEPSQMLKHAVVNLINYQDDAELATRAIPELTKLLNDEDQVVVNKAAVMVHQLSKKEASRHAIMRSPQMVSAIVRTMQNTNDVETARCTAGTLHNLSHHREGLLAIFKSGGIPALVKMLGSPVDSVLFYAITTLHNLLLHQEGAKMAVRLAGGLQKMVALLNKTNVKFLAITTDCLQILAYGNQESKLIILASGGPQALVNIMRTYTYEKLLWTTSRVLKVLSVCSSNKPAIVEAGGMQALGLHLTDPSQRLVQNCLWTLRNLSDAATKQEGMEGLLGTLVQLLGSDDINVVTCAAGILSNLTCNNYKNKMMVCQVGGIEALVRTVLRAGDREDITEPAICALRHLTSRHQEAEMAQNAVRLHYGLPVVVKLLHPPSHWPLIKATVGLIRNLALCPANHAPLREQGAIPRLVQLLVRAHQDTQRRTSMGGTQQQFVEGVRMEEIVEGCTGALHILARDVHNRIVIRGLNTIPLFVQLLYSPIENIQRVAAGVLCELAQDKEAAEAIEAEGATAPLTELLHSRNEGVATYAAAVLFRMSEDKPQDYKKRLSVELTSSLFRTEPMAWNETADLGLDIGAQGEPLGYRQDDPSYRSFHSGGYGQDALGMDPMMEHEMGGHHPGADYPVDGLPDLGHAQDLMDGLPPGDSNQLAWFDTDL

[3] = Solubility in PBS; type: physicochemical
Summary of the method: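 HPLC quantitation of peptide remaining in the PBS supernatant after ultracentrifugation, referenced to a 50 μM solution in DMSO.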

[4] = Table E2-1, read-out: beta-Catenin FP IC50
[5] = fluorescence polarization, beta-catenin, read-out: FP EC50

Row | Structure (SMILES) | CHI Log D [1] | IC50 [2, 4] [nM] | IC50 [2, 5] [nM] | Solubility [3] [µM] | chromatographic logD [1] | Solubility ([3]; Solubility (uM)) [µM]
1 | CC(=O)N1CCC[C@]12CC=CCCCC1(CCCC=CCCCCCC[C@@](C)(C(=O)N[C@@H](Cc3ccccc3)C(=O)N[C@@H](Cc3c[nH]c4ccccc34)C(=O)N[C@@H](CCC(N)=O)C(N)=O)NC(=O)[C@H](C(C)C)NC(=O)[C@H](Cc3ccco3)NC(=O)[C@H](C)NC(=O)[C@H](C)NC(=O)[C@H](CC(=O)O)NC(=O)[C@H](CC(=O)O)NC1=O)NC(=O)[C@H](C)NC(=O)[C@H](CC(=O)O)NC2=O (stereo partly drawn) [I-327, Ac-PL3-Asp-Ala-B5-Asp-Asp-Ala-Ala-2FurA-Val-S8-Phe-Trp-Gln-NH2] | 1.958 | 4720 | 4720 | 43 (≈ 76.2 µg/mL) |  | 
2 | CC(=O)N1CCC[C@]12CC=CCCCC1(CCCC=CCCCCCC[C@@](C)(C(=O)N[C@@H](Cc3ccccc3)C(=O)N[C@@H](Cc3c[nH]c4ccccc34)C(=O)N[C@@H](CCC(N)=O)C(N)=O)NC(=O)[C@H](C(C)C)NC(=O)[C@H](Cc3ccco3)NC(=O)[C@H](C)NC(=O)[C@H](C)NC(=O)[C@H](CC(=O)O)NC(=O)[C@H](CC(=O)O)NC1=O)NC(=O)[C@H](C)NC(=O)[C@H](CC(=O)O)NC2=O (stereo partly drawn) [I-328, Ac-PL3-Asp-Ala-B5-Asp-Asp-Ala-Ala-2FurA-Val-S8-Phe-Trp-Gln-NH2] | 1.983 | 1910 | 1910 | 44 (≈ 77.9 µg/mL) |  | 
3 | CC(=O)N1CCC[C@]12CC=CCCCC1(CCCC=CCCCCCC[C@@](C)(C(=O)N[C@@H](Cc3ccccc3C(N)=O)C(=O)N[C@@H](Cc3csc4ccccc34)C(=O)N[C@@H](CCC(N)=O)C(N)=O)NC(=O)[C@H](C(C)C)NC(=O)[C@H](Cc3ccccc3)NC(=O)[C@H](C)NC(=O)[C@H](C)NC(=O)[C@H](CC(=O)O)NC(=O)[C@H](CC(=O)O)NC1=O)NC(=O)[C@H](C)NC(=O)[C@H](CC(=O)O)NC2=O (stereo partly drawn) [I-336, Ac-PL3-Asp-Ala-B5-Asp-Asp-Ala-Ala-Phe-Val-S8-2CBMF-BztA-Gln-NH2] |  | 153 |  |  | 1.74 | 48 (≈ 88.4 µg/mL)

Continued, values first:

Row | CHI Log D [1] | IC50 [2, 4] [nM] | IC50 [2, 5] [nM] | Solubility [3] [µM] | chromatographic logD [1] | Solubility ([3]; Solubility (uM)) [µM] | Structure (SMILES)
4 |  | 2000 |  |  | 1.73 | 38 (≈ 68.9 µg/mL) | CC(=O)N1CCC[C@]12CC=CCCCC1(CCCC=CCCCCCC[C@@](C)(C(=O)N[C@@H](Cc3ccc(O)cc3)C(=O)N[C@@H](Cc3csc4ccccc34)C(=O)N[C@@H](CCC(N)=O)C(N)=O)NC(=O)[C@H](C(C)C)NC(=O)[C@H](Cc3ccccc3)NC(=O)[C@H](C)NC(=O)[C@H](C)NC(=O)[C@H](CC(=O)O)NC(=O)[C@H](CC(=O)O)NC1=O)NC(=O)[C@H](C)NC(=O)[C@H](CC(=O)O)NC2=O (stereo partly drawn) [I-341, Ac-PL3-Asp-Ala-B5-Asp-Asp-Ala-Ala-Phe-Val-S8-Tyr-BztA-Gln-NH2]
5 |  | 58.5 |  | 50 (≈ 90 µg/mL) | 2.07 |  | CC(=O)N1CCC[C@]12CC=CCCCC1(CCCC=CCCCCCC[C@@](C)(C(=O)N[C@@H](Cc3ccccc3)C(=O)N[C@@H](Cc3csc4ccccc34)C(=O)N[C@@H](CCC(N)=O)C(N)=O)NC(=O)[C@H]([C@@H](C)O)NC(=O)[C@H](Cc3ccccc3)NC(=O)[C@H](C)NC(=O)[C@H](C)NC(=O)[C@H](CC(=O)O)NC(=O)[C@H](CC(=O)O)NC1=O)NC(=O)[C@H](C)NC(=O)[C@H](CC(=O)O)NC2=O (stereo partly drawn) [I-342, Ac-PL3-Asp-Ala-B5-Asp-Asp-Ala-Ala-Phe-Thr-S8-Phe-BztA-Gln-NH2]
6 | 1.931 | 172 | 172 | 50 (≈ 90.7 µg/mL) |  |  | CC(=O)N1CCC[C@]12CC=CCCCC1(CCCC=CCCCCCC[C@@](C)(C(=O)N[C@@H](Cc3ccccc3)C(=O)N[C@@H](Cc3csc4ccccc34)C(=O)N[C@@H](CCC(N)=O)C(N)=O)NC(=O)[C@H](CC(N)=O)NC(=O)[C@H](Cc3ccccc3)NC(=O)[C@H](C)NC(=O)[C@H](C)NC(=O)[C@H](CC(=O)O)NC(=O)[C@H](CC(=O)O)NC1=O)NC(=O)[C@H](C)NC(=O)[C@H](CC(=O)O)NC2=O (stereo partly drawn) [I-343, Ac-PL3-Asp-Ala-B5-Asp-Asp-Ala-Ala-Phe-Asn-S8-Phe-BztA-Gln-NH2]
